Reference: ChEMBL document CHEMBL1201862, “PubChem BioAssay data set” (2004)
One block for each molecule: values may come before it. Calls of active or inactive are those of the source.

How the values were obtained:
Cysteine protease ATG4B = biological target: T1, Cysteine protease ATG4B (Homo sapiens, UniProt Q9Y4P1); type: functional;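 further: Fluorescence-based dose-response confirmation assay measuring inhibition of ATG4B activity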
T1 sequence (Q9Y4P1 whole entry): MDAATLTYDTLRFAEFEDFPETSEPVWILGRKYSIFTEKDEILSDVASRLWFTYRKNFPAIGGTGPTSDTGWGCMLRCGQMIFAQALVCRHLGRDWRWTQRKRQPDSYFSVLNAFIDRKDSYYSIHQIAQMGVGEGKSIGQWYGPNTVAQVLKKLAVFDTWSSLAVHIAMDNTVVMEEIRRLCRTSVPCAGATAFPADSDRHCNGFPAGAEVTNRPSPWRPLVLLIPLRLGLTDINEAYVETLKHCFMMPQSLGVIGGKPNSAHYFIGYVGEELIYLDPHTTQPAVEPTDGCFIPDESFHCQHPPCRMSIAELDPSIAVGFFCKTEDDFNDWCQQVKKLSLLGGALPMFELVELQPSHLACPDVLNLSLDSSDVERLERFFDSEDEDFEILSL

Phospholipase A2 = Phospholipase A2 (Homo sapiens, UniProt P04054); type: functional;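 further: confirmatory dose-response counterscreen on phospholipase A2, testing hits that came from an ultra-high-throughput screen for ATG4B inhibitors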
Sequence of Phospholipase A2 (P04054 whole entry): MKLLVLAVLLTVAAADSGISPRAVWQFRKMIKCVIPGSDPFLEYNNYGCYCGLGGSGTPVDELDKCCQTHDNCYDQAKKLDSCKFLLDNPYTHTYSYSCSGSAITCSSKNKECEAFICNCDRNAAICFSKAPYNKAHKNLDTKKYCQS

cells [1] = type: functional, cell-based
cells [2] = type: functional, cell-based; remark: listed apart in the source
[3] = growth suppression of PTEN-null colon cells, dose response, cell-based, HCT116 PTEN knockout (AID 1047); type: functional;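 further: HCT116 colon tumor cells with PTEN knocked out; cells exposed to compound for 60 hours before readout; potency for loss of cell viability measured by luminescence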
[4] = biological target: T2, Microphthalmia-associated transcription factor (Homo sapiens, UniProt O75030); assay: TRPM1 promoter luciferase signal decrease, dose response, MITF inhibitor project, cell-based, SK-MEL-5, cherry-picked, set 3 (AID 493073); type: functional
T2 sequence (O75030 whole entry): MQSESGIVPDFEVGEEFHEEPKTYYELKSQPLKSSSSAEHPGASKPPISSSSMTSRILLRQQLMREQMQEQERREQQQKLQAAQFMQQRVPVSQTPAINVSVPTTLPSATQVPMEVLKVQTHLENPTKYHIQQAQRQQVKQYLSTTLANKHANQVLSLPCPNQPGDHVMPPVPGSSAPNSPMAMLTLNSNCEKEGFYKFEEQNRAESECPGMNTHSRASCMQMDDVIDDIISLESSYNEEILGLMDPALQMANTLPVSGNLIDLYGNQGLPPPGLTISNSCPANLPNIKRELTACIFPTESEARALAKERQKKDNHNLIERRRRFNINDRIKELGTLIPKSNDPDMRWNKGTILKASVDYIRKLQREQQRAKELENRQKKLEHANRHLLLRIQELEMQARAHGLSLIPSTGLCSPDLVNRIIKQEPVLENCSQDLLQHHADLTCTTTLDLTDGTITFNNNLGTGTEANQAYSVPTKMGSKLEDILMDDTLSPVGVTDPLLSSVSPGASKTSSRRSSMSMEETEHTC

[5] = cytotoxicity in HEK-293T cells, dose response, cytotoxicity control for TCR NF-kB inhibitor project, luminescence, T-cell screen hits (AID 489026); type: functional, cell-based;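 further: cells exposed to compound about 14 hours before the viability readout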
INS1 = assay: beta cell apoptosis inhibitors, cytokine rescue, dose response, luminescence, retest (AID 449756); type: functional, cell-based; details: Rattus norvegicus;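 further: cell death triggered by IL-1 beta plus TNF-alpha plus IFN-gamma mixture; protective hits raise ATP signal compared with cytokine alone wells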
[6] = Shn3 3'UTR reporter inhibitors, dose response, cell-based, Clone20 osteoblasts, firefly luciferase, cherry-picked (AID 624132); type: functional;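 further: firefly luciferase luminescence from reporter carrying the Shn3 3'UTR in osteoblasts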
[7] = HepG2 cell cytotoxicity, dose response, cytotoxicity control for Shn3 inhibitor project, CellTiter-Glo, cherry-picked (AID 624134); type: functional, cell-based
[8] = control 3'UTR Renilla luciferase suppression, dose response, counter-screen for Shn3 inhibitor project, cell-based, Clone20-Shn3RL, cherry-picked (AID 624133); type: functional
Protein Wnt-3a = Protein Wnt-3a (Mus musculus, UniProt P27467); assay: Wnt3a-driven reporter signaling inhibition, dose response, selectivity assay for Gli-SUFU antagonist project, Wnt-LIGHT cells, luminescence (AID 651570); type: functional; details: read-out: IC50_Mean;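 further: Wnt-LIGHT reporter cells stimulated with conditioned medium from Wnt3a-producing cells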
Sequence of Protein Wnt-3a (P27467 whole entry): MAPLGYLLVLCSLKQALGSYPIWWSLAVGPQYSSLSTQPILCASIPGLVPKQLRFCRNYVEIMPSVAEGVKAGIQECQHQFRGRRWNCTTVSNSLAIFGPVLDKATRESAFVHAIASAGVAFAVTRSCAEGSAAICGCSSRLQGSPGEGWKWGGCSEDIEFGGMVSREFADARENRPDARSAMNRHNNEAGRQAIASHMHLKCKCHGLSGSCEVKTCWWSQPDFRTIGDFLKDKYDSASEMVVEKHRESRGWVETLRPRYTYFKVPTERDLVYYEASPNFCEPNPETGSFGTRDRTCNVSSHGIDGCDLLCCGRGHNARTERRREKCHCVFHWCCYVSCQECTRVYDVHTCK

Coagulation factor XII = biological target: T3, Coagulation factor XII (Homo sapiens, UniProt P00748); type: functional;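 further: activated factor XIIa alpha cleaving a fluorogenic AMC peptide substrate; inhibitor potency from loss of enzyme activity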
T3 sequence (P00748 whole entry): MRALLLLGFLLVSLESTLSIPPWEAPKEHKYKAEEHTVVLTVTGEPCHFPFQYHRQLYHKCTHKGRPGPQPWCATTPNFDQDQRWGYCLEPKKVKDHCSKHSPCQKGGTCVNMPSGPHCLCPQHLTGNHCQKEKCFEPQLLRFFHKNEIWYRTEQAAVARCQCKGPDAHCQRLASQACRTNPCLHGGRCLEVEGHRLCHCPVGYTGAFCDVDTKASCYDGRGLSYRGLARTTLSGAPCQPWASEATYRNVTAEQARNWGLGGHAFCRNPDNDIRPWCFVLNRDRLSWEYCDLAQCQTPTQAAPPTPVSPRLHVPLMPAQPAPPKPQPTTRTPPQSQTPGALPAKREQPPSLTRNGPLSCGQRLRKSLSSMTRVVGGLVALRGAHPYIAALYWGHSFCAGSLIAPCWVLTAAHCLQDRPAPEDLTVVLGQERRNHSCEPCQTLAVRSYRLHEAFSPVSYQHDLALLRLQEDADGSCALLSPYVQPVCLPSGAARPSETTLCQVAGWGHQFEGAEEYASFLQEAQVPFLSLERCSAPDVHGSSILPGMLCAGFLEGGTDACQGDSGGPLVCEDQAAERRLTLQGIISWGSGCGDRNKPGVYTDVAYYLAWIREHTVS

Prothrombin = Prothrombin (Homo sapiens, UniProt P00734); assay: Thrombin 1536 HTS Dose Response Confirmation. [Related pubchem assays: 1046 (Thrombin 1536 HTS; hits were confirmed in this assay)]; type: functional
[9] = growth suppression of beta-catenin-knockout colon cells, dose response, cell-based, HCT116, human colon tumor (AID 1045); type: functional;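 further: HCT116 colon tumor cells with beta catenin knocked out; cells exposed to compound for 60 hours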

- IC50 (Cysteine protease ATG4B): 25.4 µM (inactive)
- IC50 (Phospholipase A2): 12.2 µM (active)
Structure (SMILES): FC(F)(F)Oc1ccc(NC(S)=NCc2ccccc2)cc1

Structure (SMILES): Oc1nc(Nc2ccccc2)nc(N2CCCC2)n1
- IC50 (cells [1]): > 29.9 µM (inactive)
- EC50 (cells [2]): > 29.9 µM (inactive)

Structure (SMILES): COC(=O)c1ccc(/C=C(\C#N)C(=O)NC(C)c2ccccc2)cc1 (configuration not stated)
- EC50 [3]: 47.1 µM (active)
- AC50 [4]: 10.7 µM (active)

Structure (SMILES): COc1cccc(CN(C)C(=O)c2cc(COc3ccc4ncccc4c3)on2)c1
- IC50 [5]: 59.9 µM (inactive)
- AC50 (INS1): 5.13 µM (active)
- AC50 [6]: 1.49 µM (active)
- AC50 [7]: 3.93 µM (active)
- AC50 [8]: 2.1 µM (active)
- IC50 (Protein Wnt-3a): 1.02 µM (active)

- AC50 [4]: 1.74 µM (active)
Structure (SMILES): CC[n+]1c(C=C2C=CN(C)C=C2)ccc2cc(C)ccc21

Structure (SMILES): O=C(O)/C=C/C(=O)NCc1csc2ccccc12
- IC50 (cells [1]): > 29.9 µM (inactive)
- EC50 (cells [2]): > 29.9 µM (inactive)

- IC50 (Coagulation factor XII): > 50 µM (inactive)
Structure (SMILES): CN(C)/C=C/c1c(C#N)c(=O)ncn1Cc1ccccc1

- IC50 (Prothrombin): > 50 µM (not active)
- IC50 (Coagulation factor XII): > 50 µM (inactive)
Structure (SMILES): Cc1cc(C(=O)Nc2nc(C)c(C(=O)N(C)C)s2)ccc1[N+](=O)[O-]

Structure (SMILES): COc1ccc(C(C)=O)cc1CSc1nc2ccccc2c(=O)n1-c1cccc(C)c1
- EC50 [3]: 28.9 µM (active)
- EC50 [9]: 29.1 µM (active)
- IC50 (Cysteine protease ATG4B): 0.502 µM (active)
- IC50 (Phospholipase A2): 0.321 µM (active)
